Assay results published in US20240158446A1, “CYCLIC COMPOUND HAVING SELECTIVE INHIBITORY ACTION ON KRAS OVER HRAS AND NRAS” (CHUGAI SEIYAKU KABUSHIKI KAISHA, priority 2021, published 2024).
pKd: −log10 of the molar value.

Tests used:
[1] = test system: human lung cancer strain NCI-H441; experiment: cells; conditions: NCI-H441, 96 h, read-out: NCI-H441 IC50 (nM), NCI-H441 cell proliferation, 4 days, CellTiter-Glo;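 note: cell proliferation inhibition after four days measured by CellTiter-Glo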
[2] = target: GDP-bound HRAS wild-type protein (Homo sapiens, UniProt P01112); experiment: Binding to HRAS by surface plasmon resonance (SPR), Single Cycle Kinetics; conditions: ratio of KD for GDP-bound HRAS wild-type protein to KD for KRAS, SPR
[3] = target: GDP-bound KRAS wild-type protein (Homo sapiens, UniProt P01116); experiment: Binding to KRAS by surface plasmon resonance (SPR), Single Cycle Kinetics; conditions: SPR, Single Cycle Kinetics, GDP-bound KRAS wild-type protein; read-out: KRAS KD
[4] = target: GDP-bound NRAS wild-type protein (Homo sapiens, UniProt P01111); experiment: Binding to NRAS by surface plasmon resonance (SPR), Single Cycle Kinetics; conditions: ratio of KD for GDP-bound NRAS wild-type protein to KD for KRAS, SPR
GDP-bound NRAS wild-type protein, sequence (P01111 whole entry): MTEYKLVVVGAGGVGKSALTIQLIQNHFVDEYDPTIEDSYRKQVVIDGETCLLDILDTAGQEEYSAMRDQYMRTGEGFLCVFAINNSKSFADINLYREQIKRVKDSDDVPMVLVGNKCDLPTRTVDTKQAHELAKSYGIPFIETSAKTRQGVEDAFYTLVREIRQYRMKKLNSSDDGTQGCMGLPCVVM

GDP-bound HRAS wild-type protein, sequence (P01112 whole entry): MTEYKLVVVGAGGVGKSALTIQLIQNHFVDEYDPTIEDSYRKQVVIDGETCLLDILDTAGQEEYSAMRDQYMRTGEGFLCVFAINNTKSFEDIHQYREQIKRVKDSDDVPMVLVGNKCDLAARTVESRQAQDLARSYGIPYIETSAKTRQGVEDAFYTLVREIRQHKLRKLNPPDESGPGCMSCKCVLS
GDP-bound KRAS wild-type protein, sequence (P01116 whole entry): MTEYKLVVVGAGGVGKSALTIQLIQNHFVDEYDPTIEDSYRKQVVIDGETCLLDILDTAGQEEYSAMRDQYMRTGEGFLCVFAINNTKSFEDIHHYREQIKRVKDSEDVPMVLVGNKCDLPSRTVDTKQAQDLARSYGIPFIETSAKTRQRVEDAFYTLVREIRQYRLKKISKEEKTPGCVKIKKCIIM

IC50 [1] | pKd [3] | SMILES | HRAS/KRAS (KD ratio) [2] | NRAS/KRAS (KD ratio) [4]
2 nM | 10.22 | CCCOC[C@H]1C(=O)N[C@@H]([C@@H](C)CC)C(=O)N(C)CC(=O)N(C)[C@H]2C/C=C\CCN(C2=O)[C@@H](Cc2ccc(C(F)(F)F)cc2)C(=O)N(C)CC(=O)N[C@@H](CCc2ccc(C(F)(F)F)c(OC)c2)C(=O)N2C[C@H](OCC)C[C@H]2C(=O)NC2(CC(C)(C)C2)C(=O)N(C)[C@@H](C2CCCC2)C(=O)N(C)[C@H](C(=O)N(C)C)CC(=O)N1C [PP1657] | B (a compound having 3 or more and less than 10 is denoted as B) | A (a compound having 10 or more and less than 20 is denoted as A)
3.8 nM | 9.92 | CC[C@H](C)[C@@H]1NC(=O)[C@H](CC(F)F)N(C)C(=O)C[C@@H](C(=O)N(C)C)N(C)C(=O)[C@H](C2CCCC2)N(C)C(=O)C2(CC(C)(C)C2)NC(=O)[C@@H]2C[C@H](C)CN2C(=O)[C@H](CCc2cc(F)c(C(F)(F)F)c(F)c2)NC(=O)CN(C)C(=O)[C@H](Cc2ccc(C(F)(F)F)cc2)N2CC/C=C\C[C@@H](C2=O)N(C)C(=O)CN(C)C1=O [PP1658] | A (a compound having 10 or more and less than 20 is denoted as A) | A (a compound having 10 or more and less than 20 is denoted as A)
4.3 nM | 9.96 | CC[C@H](C)[C@@H]1NC(=O)[C@H](CC2CC2)N(C)C(=O)C[C@@H](C(=O)N(C)C)N(C)C(=O)[C@H](C2CCCC2)N(C)C(=O)C2(CC(C)(C)C2)NC(=O)[C@@H]2C[C@H](C)CN2C(=O)[C@H](CCc2cc(F)c(C(F)(F)F)c(F)c2)NC(=O)CN(C)C(=O)[C@H](Cc2ccc(C(F)(F)F)cc2)N2CC/C=C\C[C@@H](C2=O)N(C)C(=O)CN(C)C1=O [PP1660] | A (a compound having 10 or more and less than 20 is denoted as A) | A (a compound having 10 or more and less than 20 is denoted as A)
5.7 nM | 9.72 | CCCC[C@H]1C(=O)N[C@@H]([C@@H](C)CC)C(=O)N(C)CC(=O)N(C)[C@H]2C/C=C\CCN(C2=O)[C@@H](Cc2ccc(C(F)(F)F)cc2)C(=O)N(C)CC(=O)N[C@@H](CCc2cc(F)c(C(F)(F)F)c(F)c2)C(=O)N2C[C@@H](C)C[C@H]2C(=O)NC2(CC(C)(C)C2)C(=O)N(C)[C@@H](C2CCCC2)C(=O)N(C)[C@H](C(=O)N(C)C)CC(=O)N1C [PP1661] | A (a compound having 10 or more and less than 20 is denoted as A) | A (a compound having 10 or more and less than 20 is denoted as A)
6.4 nM | 9.85 | CC[C@H](C)[C@@H]1NC(=O)[C@H](CC(C)C)N(C)C(=O)C[C@@H](C(=O)N(C)C)N(C)C(=O)[C@H](C2CCCC2)N(C)C(=O)C2(CC(C)(C)C2)NC(=O)[C@@H]2C[C@H](C)CN2C(=O)[C@H](CCc2cc(F)c(C(F)(F)F)c(F)c2)NC(=O)CN(C)C(=O)[C@H](Cc2ccc(C(F)(F)F)cc2)N2CC/C=C\C[C@@H](C2=O)N(C)C(=O)CN(C)C1=O [PP1662] | B (a compound having 3 or more and less than 10 is denoted as B) | A (a compound having 10 or more and less than 20 is denoted as A)
3.6 nM | 10.42 | CCCN(C)C(=O)[C@@H]1CC(=O)N(C)[C@@H](C)C(=O)N[C@@H]([C@@H](C)CC)C(=O)N(C)CC(=O)N(C)[C@H]2C/C=C\CCN(C2=O)[C@@H](Cc2ccc(C(F)(F)F)cc2)C(=O)N(C)CC(=O)N[C@@H](CCc2cc(F)c(C(F)(F)F)c(F)c2)C(=O)N2C[C@H](F)C[C@H]2C(=O)NC2(CC(C)(C)C2)C(=O)N(C)[C@@H](C2CCCC2)C(=O)N1C [PP1663] | A (a compound having 10 or more and less than 20 is denoted as A) | AA (a compound having 20 or more is denoted as AA)
3.1 nM | 10.18 | CCCN(C)C(=O)[C@@H]1CC(=O)N(C)[C@@H](CC2CC2)C(=O)N[C@@H]([C@@H](C)CC)C(=O)N(C)CC(=O)N(C)[C@H]2C/C=C\CCN(C2=O)[C@@H](Cc2ccc(C(F)(F)F)cc2)C(=O)N(C)CC(=O)N[C@@H](CCc2cc(F)c(C(F)(F)F)c(F)c2)C(=O)N2C[C@H](F)C[C@H]2C(=O)NC2(CC(C)(C)C2)C(=O)N(C)[C@@H](C2CCCC2)C(=O)N1C [PP1665] | A (a compound having 10 or more and less than 20 is denoted as A) | AA (a compound having 20 or more is denoted as AA)
8.1 nM | 10.12 | CCCN(C)C(=O)[C@@H]1CC(=O)N(C)[C@@H](C)C(=O)N[C@@H]([C@@H](C)CC)C(=O)N(C)CC(=O)N(C)[C@H]2C/C=C\CCN(C2=O)[C@@H](Cc2ccc(C(F)(F)F)cc2)C(=O)N(C)CC(=O)N[C@@H](CCc2cc(F)c(C(F)(F)F)c(F)c2)C(=O)N2C[C@H](OCC)C[C@H]2C(=O)NC2(CCC2)C(=O)N(C)[C@@H](C2CCCC2)C(=O)N1C [PP1666] | A (a compound having 10 or more and less than 20 is denoted as A) | A (a compound having 10 or more and less than 20 is denoted as A)
5.3 nM | 9.89 | CCCOC[C@H]1C(=O)N[C@@H]([C@@H](C)CC)C(=O)N(C)CC(=O)N(C)[C@H]2C/C=C\CCN(C2=O)[C@@H](Cc2ccc(C(F)(F)F)cc2)C(=O)N(C)CC(=O)N[C@@H](CCc2cc(F)c(C(F)(F)F)c(F)c2)C(=O)N2C[C@H](OCC)C[C@H]2C(=O)NC2(CCC2)C(=O)N(C)[C@@H](C2CCCC2)C(=O)N(C)[C@H](C(=O)N(C)CCC)CC(=O)N1C [PP1668] | A (a compound having 10 or more and less than 20 is denoted as A) | A (a compound having 10 or more and less than 20 is denoted as A)
6.7 nM | 10.00 | CCCN(C)C(=O)[C@@H]1CC(=O)N(C)[C@@H](CC)C(=O)N[C@@H]([C@@H](C)CC)C(=O)N(C)CC(=O)N(C)[C@H]2C/C=C\CCN(C2=O)[C@@H](Cc2ccc(C(F)(F)F)cc2)C(=O)N(C)CC(=O)N[C@@H](CCc2cc(F)c(C(F)(F)F)c(F)c2)C(=O)N2C[C@H](OCC)C[C@H]2C(=O)NC2(CC(C)(C)C2)C(=O)N(C)[C@@H](C2CCCC2)C(=O)N1C [PP1670] | A (a compound having 10 or more and less than 20 is denoted as A) | A (a compound having 10 or more and less than 20 is denoted as A)
3 nM | 10.11 | CCO[C@@H]1C[C@H]2C(=O)NC3(CC(C)(C)C3)C(=O)N(C)[C@@H](C3CCCC3)C(=O)N(C)[C@H](C(=O)N(C)CC)CC(=O)N(C)[C@@H](COC)C(=O)N[C@@H]([C@@H](C)CC)C(=O)N(C)CC(=O)N(C)[C@H]3C/C=C\CCN(C3=O)[C@@H](Cc3ccc(C(F)(F)F)cc3)C(=O)N(C)CC(=O)N[C@@H](CCc3cc(F)c(C(F)(F)F)c(F)c3)C(=O)N2C1 [PP1671] | A (a compound having 10 or more and less than 20 is denoted as A) | A (a compound having 10 or more and less than 20 is denoted as A)
6 nM | 10.06 | CCCN(C)C(=O)[C@@H]1CC(=O)N(C)[C@@H](COC)C(=O)N[C@@H]([C@@H](C)CC)C(=O)N(C)CC(=O)N(C)[C@H]2C/C=C\CCN(C2=O)[C@@H](Cc2ccc(C(F)(F)F)cc2)C(=O)N(C)CC(=O)N[C@@H](CCc2cc(F)c(C(F)(F)F)c(F)c2)C(=O)N2C[C@H](OCC)C[C@H]2C(=O)NC2(CC(C)(C)C2)C(=O)N(C)[C@@H](C2CCCC2)C(=O)N1C [PP1672] | A (a compound having 10 or more and less than 20 is denoted as A) | A (a compound having 10 or more and less than 20 is denoted as A)
6 nM | 9.80 | CCCOC[C@H]1C(=O)N[C@@H]([C@@H](C)CC)C(=O)N(C)CC(=O)N(C)[C@H]2C/C=C\CCN(C2=O)[C@@H](Cc2ccc(C(F)(F)F)cc2)C(=O)N(C)CC(=O)N[C@@H](CCc2cc(F)c(C(F)(F)F)c(F)c2)C(=O)N2C[C@H](OCC)C[C@H]2C(=O)NC2(CC(C)(C)C2)C(=O)N(C)[C@@H](C2CCCC2)C(=O)N(C)[C@H](C(=O)N(C)CCC)CC(=O)N1C [PP1673] | A (a compound having 10 or more and less than 20 is denoted as A) | A (a compound having 10 or more and less than 20 is denoted as A)
5.1 nM | 10.44 | CCO[C@@H]1C[C@H]2C(=O)NC3(CC(C)(C)C3)C(=O)N(C)[C@@H](C3CCCC3)C(=O)N(C)[C@H](C(=O)N(C)C)CC(=O)N(C)[C@@H](C)C(=O)N[C@@H]([C@@H](C)CC)C(=O)N(C)CC(=O)N(C)[C@H]3C/C=C\CCN(C3=O)[C@@H](Cc3ccc(C(F)(F)F)cc3)C(=O)N(C)CC(=O)N[C@@H](CCc3ccc(C(F)(F)F)c(OC)c3)C(=O)N2C1 [PP1674] | A (a compound having 10 or more and less than 20 is denoted as A) | A (a compound having 10 or more and less than 20 is denoted as A)
3 nM | 10.15 | CCO[C@@H]1C[C@H]2C(=O)NC3(CC(C)(C)C3)C(=O)N(C)[C@@H](C3CCCC3)C(=O)N(C)[C@H](C(=O)N(C)C)CC(=O)N(C)[C@@H](CC(F)(F)F)C(=O)N[C@@H]([C@@H](C)CC)C(=O)N(C)CC(=O)N(C)[C@H]3C/C=C\CCN(C3=O)[C@@H](Cc3ccc(C(F)(F)F)cc3)C(=O)N(C)CC(=O)N[C@@H](CCc3ccc(C(F)(F)F)c(OC)c3)C(=O)N2C1 [PP1675] | B (a compound having 3 or more and less than 10 is denoted as B) | A (a compound having 10 or more and less than 20 is denoted as A)
